From patent publication US20100222548A1, “METHOD FOR PRODUCING CONDENSATION PRODUCTS FROM N-SUBSTITUTED GLYCINE DERIVATIVES(PEPTOIDS) BY SEQUENTIAL UGI-MULTICOMPONENT REACTIONS” (priority 2006, published 2010)
Where a SMILES comes first, the peptide text is derived from it. [ ]: non-standard residue; d: D form. Gly(Nα-4-Cl-benzyl) = O=C(O)CNCc1ccc(Cl)cc1; Gly(N-(CH2)3OMe) = COCCCNCC(=O)O; N(iPr)Gly = CC(C)NCC(=O)O

Tested on: Vibrio fischeri

Structure (SMILES): COCCCN(CC(=O)NCC(=O)O)C(=O)CNC(=O)CN(C(=O)CNC(=O)CN(Cc1ccc(Cl)cc1)C(=O)CN)C(C)C (H-G[Gly(Nα-4-Cl-benzyl)]G[N(iPr)Gly]G[Gly(N-(CH2)3OMe)]G-OH)
- IC50: ~10 µM
